ChEMBL document CHEMBL1914302, “The structure-antituberculosis activity relationships study in a series of 5-aryl-2-thio-1,3,4-oxadiazole derivatives” (2011)

Tested on: Mycobacterium tuberculosis
Assay: Antimycobacterial activity against Mycobacterium tuberculosis H37Rv ATCC 27294 assessed as growth inhibition at 6.25 ug/mL after 4 days by microplate alamar blue assay
Type: functional
Conditions: H37Rv ATCC 27294, 96 h, read-out: GI

Compound | inhibition of growth at 6.25 µg/mL
Cc1ccc(NC(S)=Nc2cccc(-c3nnc(S)o3)c2)cc1 | 18%
NC(S)=Nc1cccc(-c2nnc(S)o2)c1 | 13%
NN=C(S)Nc1cccc(-c2nnc(S)o2)c1 | 0%
CSc1nnc(-c2cccc(NC(S)=NN)c2)o1 | 0%
CSc1nnc(-c2ccc(NC(N)=S)cc2)o1 | 78%
NC(=S)Nc1ccc(-c2nnc(SCC(=O)c3ccccc3)o2)cc1 | 61%
CSc1nnc(-c2ccc(NC(=S)Nn3cnnc3)cc2)o1 | 58%
CSc1nnc(-c2ccc(NC(=S)N3CCOCC3)cc2)o1 | 0%
CSc1nnc(-c2ccc(NC(=S)Nc3ccc(C)cc3)cc2)o1 | 17%
C=CCSc1nnc(-c2ccc(N=C=S)cc2)o1 | 56%
CSc1nnc(-c2ccc(NC(=S)NN)cc2)o1 | 0%
O=C(CSc1nnc(-c2ccc(N=C=S)cc2)o1)c1ccc(Cl)cc1Cl | 2%
O=C(CSc1nnc(-c2ccc(N=C=S)cc2)o1)c1ccccc1 | 22%
O=C(CSc1nnc(-c2ccc(N=C=S)cc2)o1)c1ccc(F)cc1 | 12%
S=C=Nc1ccc(-c2nnc(Sc3ncccn3)o2)cc1 | 14%
S=C=Nc1ccc(-c2nnc(SCc3ccccc3)o2)cc1 | 20%
S=C=Nc1ccc(-c2nnc(SCc3ccncc3)o2)cc1 | 27%
CSc1nnc(-c2ccc(N=C=S)cc2)o1 | 37%
C=CCNC(=S)Nc1ccc(-c2nnc(S)o2)cc1 | 6%
Cc1ccc(NC(=S)Nc2ccc(-c3nnc(S)o3)cc2)cc1 | 5%
CN(C)NC(=S)Nc1ccc(-c2nnc(S)o2)cc1 | 9%
OCCNC(=S)Nc1ccc(-c2nnc(S)o2)cc1 | 9%
S=C(Nc1ccc(-c2nnc(S)o2)cc1)N1CCCCC1 | 28%
CCNC(=S)Nc1ccc(-c2nnc(S)o2)cc1 | 0%
NC(=S)Nc1ccc(-c2nnc(S)o2)cc1 | 70%

Compound | inhibition of growth at 6.25 µg/mL
CNC(=S)Nc1ccc(-c2nnc(S)o2)cc1 | 0%
S=C=Nc1ccc(-c2nnc(S)o2)cc1 | 2%
S=C=Nc1cccc(-c2nnc(S)o2)c1 | 9%
CSc1nnc(-c2ccc(NC(=S)NCCO)cc2)o1 | 67%
OCCNC(=S)Nc1ccc(-c2nnc(SCc3ccncc3)o2)cc1 | 25%
NC(=S)Nc1ccc(-c2nnc(Sc3ncccn3)o2)cc1 | 87%
O=C(CSc1nnc(-c2ccc(NC(=S)NCCO)cc2)o1)c1ccc(F)cc1 | 90%
OCCNC(=S)Nc1ccc(-c2nnc(Sc3ncccn3)o2)cc1 | 14%
C=CCNC(=S)Nc1cccc(-c2nnc(S)o2)c1 | 0%
CC(C)=NNC(=S)Nc1cccc(-c2nnc(S)o2)c1 | 16%
C/C(=N/NC(=S)Nc1cccc(-c2nnc(S)o2)c1)c1ccccc1 | 20%
S=C(Nc1cccc(-c2nnc(S)o2)c1)Nn1cnnc1 | 13%
S=C(Nc1cccc(-c2nnc(S)o2)c1)N1CCCCC1 | 13%
CN(C)NC(=S)Nc1cccc(-c2nnc(S)o2)c1 | 5%
S=C=Nc1cccc(-c2cnc(SCCc3ccccc3)o2)c1 | 0%
S=C=Nc1cccc(-c2nnc(SCc3ccccc3)o2)c1 | 0%
O=C(CSc1nnc(-c2cccc(N=C=S)c2)o1)c1ccc2ccccc2c1 | 0%
O=C(CSc1nnc(-c2cccc(N=C=S)c2)o1)c1ccc(Br)cc1 | 0%
O=C(CSc1nnc(-c2cccc(N=C=S)c2)o1)c1ccc(Cl)cc1Cl | 0%
C=CCSc1nnc(-c2cccc(N=C=S)c2)o1 | 3%
O=C(CSc1nnc(-c2cccc(N=C=S)c2)o1)c1ccc(F)cc1 | 5%
O=C(CSc1nnc(-c2cccc(N=C=S)c2)o1)c1ccc(Cl)cc1 | 0%
O=C(CSc1nnc(-c2cccc(NC(=S)NCCO)c2)o1)c1ccc(F)cc1 | 0%
CN(C)C(=S)Nc1cccc(-c2nnc(SCC(=O)c3ccc4ccccc4c3)o2)c1 | 0%
O=C(CSc1nnc(-c2cccc(NC(=S)NCCO)c2)o1)c1ccc2ccccc2c1 | 0%

Compound | inhibition of growth at 6.25 µg/mL
O=C(CSc1nnc(-c2cccc(NC(=S)NCCO)c2)o1)c1ccc(Cl)cc1Cl | 0%
NC(=S)Nc1cccc(-c2nnc(SCC(=O)c3ccc(Cl)cc3Cl)o2)c1 | 0%
NC(=S)Nc1cccc(-c2nnc(SCC(=O)c3ccc(Cl)cc3)o2)c1 | 0%
NC(=S)Nc1cccc(-c2nnc(SCC(=O)c3ccccc3)o2)c1 | 0%
NC(=S)Nc1cccc(-c2nnc(SCC(=O)c3ccc(Br)cc3)o2)c1 | 6%
CN(C)C(=S)Nc1cccc(-c2nnc(SCC(=O)c3ccccc3)o2)c1 | 9%
NC(=S)Nc1cccc(-c2nnc(SCCc3ccccc3)o2)c1 | 16%
O=C(CSc1nnc(-c2cccc(NC(=S)NCCO)c2)o1)c1ccc(Br)cc1 | 17%
CN(C)C(=S)Nc1cccc(-c2nnc(SCC(=O)c3ccc(Cl)cc3)o2)c1 | 18%
NC(=S)Nc1cccc(-c2nnc(SCC(=O)c3ccc(F)cc3)o2)c1 | 19%
O=C(CSc1nnc(-c2cccc(NC(=S)NCCO)c2)o1)c1ccccc1 | 12%
Cc1ccc(C(=O)CSc2nnc(-c3cccc(NC(=S)N(C)C)c3)o2)cc1 | 10%
NC(=S)Nc1cccc(-c2nnc(SCC(=O)c3ccc4ccccc4c3)o2)c1 | 16%
OCCNC(=S)Nc1cccc(-c2nnc(SCCc3ccccc3)o2)c1 | 13%
CSc1nnc(-c2cccc(NC(N)=S)c2)o1 | 25%
CSc1nnc(-c2cccc(NC(=S)NCCO)c2)o1 | 8%
CSc1nnc(-c2cccc(NC(=S)Nn3cnnc3)c2)o1 | 58%
CSc1nnc(-c2cccc(NC(=S)Nc3ccc(C)cc3)c2)o1 | 21%
CSc1nnc(-c2cccc(NC(=S)N3CCOCC3)c2)o1 | 0%
CSc1nnc(-c2cccc(NC(=S)NN(C)C)c2)o1 | 8%
CN(C)C(=S)Nc1cccc(-c2nnc(SCC(=O)c3ccc(Cl)cc3Cl)o2)c1 | 1%
NC(=S)Nc1cccc(-c2nnc(SCc3ccccc3)o2)c1 | 0%
CNC(=S)Nc1cccc(-c2nnc(SCC(=O)c3ccc4ccccc4c3)o2)c1 | 0%
NNC(=S)Nc1ccc(-c2nnc(S)o2)cc1 [STEMAZOLE] | 0%

Tested on: Mycobacterium tuberculosis
Assay: Antimycobacterial activity against Mycobacterium tuberculosis H37Rv ATCC 27294 assessed as growth inhibition at 12.5 ug/mL after 4 days by microplate alamar blue assay
Type: functional
Conditions: H37Rv ATCC 27294, 96 h, read-out: GI

Compound | inhibition of growth at 12.5 µg/mL
NC(=S)Nc1ccc(-c2nnc(SCc3ccccc3)o2)cc1 | 91%
NC(=S)Nc1ccc(-c2nnc(SCC(=O)c3ccc(Cl)cc3Cl)o2)cc1 | 93%
O=C(CSc1nnc(-c2ccc(NC(=S)NCCO)cc2)o1)c1ccccc1 | 96%
C=CCSc1nnc(-c2ccc(NC(=S)NCCO)cc2)o1 | 96%
OCCNC(=S)Nc1ccc(-c2nnc(SCc3ccccc3)o2)cc1 | 97%
C=CCSc1nnc(-c2ccc(NC(N)=S)cc2)o1 | 98%
O=C(CSc1nnc(-c2ccc(NC(=S)NCCO)cc2)o1)c1ccc(Cl)cc1Cl | 98%
NC(=S)Nc1ccc(-c2nnc(SCc3ccncc3)o2)cc1 | 97%
